Entries after “also recorded” stand apart in the source; their conditions may differ. Marks after values point to notes of the source that are not given here.
What was measured:
[1] = Stability of LE in aqueous suspension with or without Δ^1-cortienic acid at room temperature (HPLC); assay type: physicochemical; settings: for k: 421 days
Protocol: To investigate the effect of Δ^1-cortienic acid (Δ^1-CA) on the stability of loteprednol etabonate (LE), the following experiments were conducted at room temperature (22.5° C.):
Inactives: Δ^1-CA, 0.1% (2.897 mM) & 0.2% (5.795 mM); Glycerin, Povidone, Tyloxapol, Edetate Disodium Dihydrate, Purified Water.
Preservative added: Benzalkonium Chloride 0.01%
• 1) To the mixture of 9.32 g glycerin (USP, 99.7%), 7.2 g Povidone (USP, 90000), 1.2 g Tyloxapol (USP), 0.08 g benzalkonium chloride (USP, […] of 50% solution), and 0.04 g Edetate Disodium Dihydrate (USP), 400 ml Purified Water (USP) was added. 2) The mixture was sonicated for 20 minutes to make a homogenous solution, and its pH was measured. 3) To 150 ml of each solution was added 0.15 g or 0.3 g of loteprednol etabonate (micronized), and the mixture was sonicated for 30 minutes to obtain two LE-only suspensions at 0.1% & 0.2%, respectively. 4) From each LE-only suspension (0.1 & 0.2%), 75 ml was taken and combined with micronized Δ^1-CA (0.075 & 0.15 g). 5) All four suspensions were mixed and sonicated again for another 30 minutes, and the pH of each was measured (Blank vehicle pH 3.4; LE only suspensions, pH 3.5; LE+Δ^1-CA suspensions, pH 3.3). 6) Each of the four suspensions was separated/pipetted (1 ml) into 8 ml amber vials (1 ml/vial) and the vials were sealed with caps and parafilm. 7) Half of each formula 1 ml/vial samples were loaded on a shaker for continuous shaking (170 times/min), and the other half of the samples were only shaken vigorously by hand each time before HPLC sample preparation. 8) For periodical samplings, one sample of every set of suspensions was taken and analyzed by HPLC. 9) All procedures were conducted at 22.5° C. Sample Preparation
The change of LE and its degradation products AE (acid etabonate) and Δ^1-CA in the suspensions was measured periodically. A vial of each series of suspensions was randomly taken, mixed/washed with 50% acetonitrile, and transferred to a 10 ml cylinder to make a final volume of 10 ml solution (about 100 μg/ml for LE 0.1% or 200 μg/ml for LE 0.2% samples).
A HPLC system operating at ambient temperature was used to quantitative determination of LE, AE and Δ^1-CA. Phenonemax Luna C18 (5μ, 150×4.6 mm) was connected to a Spectra-Physics component system consisting of a SP 8810 precision isocratic pump, a Rheodyne 7125 injector (injection volume 20 μl), a SP 8450 UV/VIS variable wavelength detector (operated at 254 nm), and a SP 4290 integrator. At a flow rate of 1 ml/min, a mobile phase consisting of acetonitrile, acetic acid, and water in a volume ratio of 60:0.2:40 eluted LE, AE and Δ^1-CA at 7.5, 3.2, and 2.2 min, respectively. Each sample was run in triplicate. The change in peak-area was recorded, and the percent ratio of each compound (LE, AE, and Δ^1-CA) toward total (LE+AE+Δ^1-CA) in peak-area was used to evaluate the disappearance of LE as well as the appearance of AE and Δ^1-CA. Since Δ^1-CA was used as an additive for LE+Δ^1-CA samples, the appearance of Δ^1-CA (from AE) was in the error range of these samples, and furthermore, in the LE-only samples, Δ^1-CA was observed from zero-time at 0.36±0.19% of total (LE+AE+Δ^1-CA), and less than, or about 0.5% thereafter in all LE-only samples; the number 0.5% was used as the amount of Δ^1-CA for all of LE+Δ^1-CA samples.

[2] = tested on: Sprague-Dawley rats; experiment: Effect of steroid ointments on skin atrophy and thymus weight in rats; assay type: in vivo, rat; settings: for PERCENT DECREASE IN SKIN THICKNESS / PERCENT DECREASE IN THYMUS WEIGHT: ointment on shaved dorsal skin, vs controls; for effect on thymus weight (in words) / skin atrophy (in words): topical ointment
Protocol: To investigate the effects of loteprednol etabonate (LE) on skin atrophy and thymus weight, the following experiments were conducted: Loteprednol etabonate (LE) and betamethasone valerate (BMV) were formulated by Otsuka Pharmaceuticals at a concentation of 0.1% in a white petrolatum base containing 5% propylene carbonate. All other test materials were steroidal anti-inflammatory compounds [Locoid® or hydrocortisone 17-butyrate (HCB) and Rinderon® or betamethasone 17-valerate (BMV-R) or white petrolatum vehicle as a control] which were commercially available in Japan at the time of testing. Sprague-Dawley rats were used in this study. All animals were from the animal research facilities of Otsuka Pharmaceutical Co. Ltd., Tokushima, Japan and all animal care and housing were according to their standard procedures. Groups of male rats (Sprague Dawley) weighing about 200-240 g were shaved on the dorsal surface. Loteprednol etabonate and betamethasone 17-valerate were administered as 0.1% ointments using white petrolatum base containing 5% propylene carbonate (PC). In separate groups, 0.12% betamethasone 17-valerate (Rinderon®), 0.1% hydrocortisone 17-butyrate (Locoid®) were administered as comparators. White petrolatum base (+5% PC) was administered to control animals. Two schedules of dosing were used: 200 mg/rat for 14 days (n=5) or 400 mg/rat for 7 days (n=7). At the end of these periods, rats were sacrificed. The thickness of a 1 cm^2 section of skin from the treated area was measured. The thymus was removed and weighed.

[3] = tested on: patient with necrobiosis; experiment: Topical treatment of a patient with necrobiosis; assay type: in vivo, human; settings: LE as 0.5% cream of Example 2
From the text: Further confirmation has been found in a patient with necrobiosis.

[4] = anti-inflammatory activity; cited from earlier work
[5] = clinical trials, compared to prednisolone; cited from earlier work
[6] = tested on: hairless mice; experiment: Multi-week topical (photocarcinogenicity) study of loteprednol etabonate cream in hairless mice, with or without simulated sunlight; skinfold thickness; assay type: in vivo, mouse
Protocol: To investigate photocarcinogenicity, a multi-week study of loteprednol etabonate cream in hairless mice, with or without simulated sunlight, was undertaken. […] Because effects on skin atrophy were also recorded, however, and because a period of 4 weeks is the maximum recommended treatment period for eyelid dermatitis, results for the first 4 weeks of the study are given below. Mice were treated with the cream formulation once daily, five days per week. In the portion of the test summarized below, the cream contained LE in amounts of 0, 0.25% by weight and 0.5% by weight. (Higher concentrations were tested but results are not given here). Week 0 was baseline. After 4 weeks, skin thickness measurements were taken using a caliper. The cream also contained glycerin 99% USP, benzyl alcohol NF, purified water USP, carbomer 940 NF (Carbopol 980), glyceryl stearate/PEG 100 stearate, trolamine 99F, cetyl alcohol NF, stearyl alcohol NF, white petrolatum USP, light mineral oil NF and dimethicone (50 cst).

[7] = regimens of Table 2, listed as loteprednol etabonate
[8] = LE 0.1% + Δ^1-CA 0.1% suspension, 22.5° C.
[9] = LE 0.1% suspension, no Δ^1-CA, 22.5° C.
[10] = LE 0.2% + Δ^1-CA 0.2% suspension, 22.5° C.
[11] = LE 0.2% suspension, no Δ^1-CA, 22.5° C.

| SMILES | PERCENT DECREASE IN SKIN THICKNESS ([2]; 200 mg/day - 14 d) | PERCENT DECREASE IN THYMUS WEIGHT ([2]; 200 mg/day - 14 d) | effect on thymus weight (in words) ([2]; regimens of Table 2) | skin atrophy (in words) ([2]; regimens of Table 2) | effect on inflammation / necrobiosis [3] | skin atrophy (skin thinning) [3] | PERCENT DECREASE IN SKIN THICKNESS ([2]; 400 mg/day - 7 d) | PERCENT DECREASE IN THYMUS WEIGHT ([2]; 400 mg/day - 7 d) | further results |
| --- | --- | --- | --- | --- | --- | --- | --- | --- | --- |
| CCOC(=O)OC1(C(=O)O)CC[C@H]2[C@@H]3CCC4=CC(=O)C=C[C@]4(C)[C@H]3C(O)C[C@@]21C (stereo partly shown) [AE] |  |  |  |  |  |  |  |  | stability of degradation product AE in the suspension ([1]; aqueous LE suspensions, 22.5° C.): stable |
| CCCCC(=O)O[C@]1(C(=O)CO)[C@@H](C)C[C@H]2[C@@H]3CCC4=CC(=O)C=C[C@]4(C)[C@@]3(F)[C@@H](O)C[C@@]21C [BMV, betamethasone 17-valerate] | 12.8* PERCENT | 70.1** PERCENT | significant decreases in thymus weight | caused skin atrophy | successful in lessening inflammation | thinned the skin |  |  | effect on thymus weight (in words) ([2]; regimens of Table 2, listed as Betamethasone valerate): most significant decreases in thymus weight |
| CCCC(=O)O[C@]1(C(=O)CO)CC[C@H]2[C@@H]3CCC4=CC(=O)CC[C@]4(C)[C@H]3[C@@H](O)C[C@@]21C [HCB, hydrocortisone 17-butyrate] | 17.9* PERCENT | 29.5* PERCENT | significant decreases in thymus weight | most marked; also recorded: caused skin atrophy |  |  | 12.8* PERCENT | 36.0** PERCENT |  |
| CCOC(=O)O[C@]1(C(=O)OCCl)CC[C@H]2[C@@H]3CCC4=CC(=O)C=C[C@]4(C)[C@H]3[C@@H](O)C[C@@]21C [LE, chloromethyl 17α-ethoxycarbonyloxy-11β-hydroxyandrosta-1,4-dien-3-one-17β-carboxylate] | 6.5% | 12.8% | minimal effects on skin atrophy and thymus weight | minimal effects on skin atrophy and thymus weight | effective in treating the necrobiosis by lessening inflammation | did not cause skin atrophy | 10.3% | −2.5% | activity relative to hydrocortisone (HC) [4]: approximately 20 times; cataracts [5]: did not elevate intraocular pressure or cause cataracts; elevation of intraocular pressure [5]: did not elevate intraocular pressure; skin atrophy (in words) ([6]; 1.5% and 4.5% by weight of LE and/or study extended to week 8 and week 13): more skin atrophy was seen; effect on skin thickness (in words) ([6]; LE at 0.25% and 0.5%, application for four weeks): no or minimal deleterious effect on skin thickness; skin atrophy (in words) ([2]; regimens of Table 2, listed as Loteprednol etabonate): did not cause a statistically significant decrease in skin thickness; effect on thymus weight (in words) [2, 7]: did not effect thymus weight significantly; skin atrophy (in words) [2, 7]: less skin atrophy; t95% [1, 8]: 3.66 year; k [1, 8]: 3.84 day^−1 × 10^−5; t95% [1, 9]: 2.10 year; k [1, 9]: 6.69 day^−1 × 10^−5; t95% [1, 10]: 6.12 year; k [1, 10]: 2.30 day^−1 × 10^−5; t95% [1, 11]: 3.21 year; k [1, 11]: 4.38 day^−1 × 10^−5; stabilization of LE by increase in concentration ([1]; concentration from 0.1% to 0.2%, in either LE-only or LE+Δ^1-CA suspension): more than 1.5 times; stabilization of LE by Δ^1-cortienic acid relative to LE in the absence of the enhancer (increase of half-life) ([1]; same concentration of Δ^1-CA added to LE suspension): between one and one-half and two times; also recorded: almost two times |
